Source: patent US9790229B2, “Bruton's tyrosine kinase inhibitors” (priority 2009, dated 2017)
Like-named read-outs stand apart in the source and are kept apart here.

Molecular target: BTK (Homo sapiens (Human), UniProt Q06187)
Assay: In vitro BTK kinase assay: BTK-POLYGAT-LS ASSAY
[1] = read-out: IC50 (10 uM ATP), 10 uM ATP, in vitro Btk kinase assay, Example 41

BTK, sequence (Q06187 whole entry): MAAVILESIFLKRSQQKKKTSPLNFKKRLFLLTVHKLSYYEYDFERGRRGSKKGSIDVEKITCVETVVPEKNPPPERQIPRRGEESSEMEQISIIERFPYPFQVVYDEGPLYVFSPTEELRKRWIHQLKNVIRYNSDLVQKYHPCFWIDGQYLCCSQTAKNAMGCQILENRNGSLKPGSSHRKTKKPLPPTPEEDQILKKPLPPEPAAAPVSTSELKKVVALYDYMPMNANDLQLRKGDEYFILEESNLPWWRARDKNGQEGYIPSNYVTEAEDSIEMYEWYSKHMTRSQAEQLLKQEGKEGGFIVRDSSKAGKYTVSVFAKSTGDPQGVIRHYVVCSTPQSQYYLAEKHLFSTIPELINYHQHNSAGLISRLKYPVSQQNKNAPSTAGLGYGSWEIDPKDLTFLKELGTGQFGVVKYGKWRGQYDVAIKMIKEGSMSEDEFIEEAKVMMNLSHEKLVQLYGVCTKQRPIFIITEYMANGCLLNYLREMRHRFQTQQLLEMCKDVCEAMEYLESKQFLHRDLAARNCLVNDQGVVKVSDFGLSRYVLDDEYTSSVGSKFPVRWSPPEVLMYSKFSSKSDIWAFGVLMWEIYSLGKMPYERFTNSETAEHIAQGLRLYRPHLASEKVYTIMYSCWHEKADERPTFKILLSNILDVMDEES

SMILES	IC50 [µM]	IC50 [1] [µM]
O=C(Nc1cccc(C2CCCN(c3ncnc4[nH]ccc34)C2)c1)Nc1ccccc1N1CCCCC1 (stereo not shown) [compound 175]	0.1 to 0.999	–
CNc1cc(N2CCCC(c3cccc(NC(=O)Nc4ccccc4)c3)C2)ncn1 (stereo not shown) [Cmpd 95, 1-(3-(1-(6-(methylamino)pyrimidin-4-yl)piperidin-3-yl)phenyl)-3-phenylurea]	–	> 10
Nc1ncnc(N2CCC[C@@H](N3CCCC(Nc4ccccc4S(=O)(=O)C4CCCCC4)C3=O)C2)c1F (stereo partly drawn) [compound 320, (3′R)-1′-(6-Amino-5-fluoropyrimidin-4-yl)-3-(2-(cyclohexylsulfonyl)phenylamino)-1,3′-bipiperidin-2-one]	–	< 0.1
O=C1C(Nc2ccccc2S(=O)(=O)N2CCCCC2)CCCN1[C@@H]1CCCN(c2ncnc3[nH]ccc23)C1 (stereo partly drawn) [compound 318, (3′R)-3-(2-(Piperidin-1-ylsulfonyl)phenylamino)-1′-(7H-pyrrolo[2,3-d]pyrimidin-4-yl)-1,3′-bipiperidin-2-one]	–	< 0.1
N#C/N=C(\Nc1cccc(C2CCCN(c3ncnc4[nH]ccc34)C2)c1)Nc1c(Cl)cccc1Cl (stereo not shown) [compound 269]	0.1 to 0.999	–
O=C(Nc1cccc(C2CCCN(c3ncnc4[nH]ccc34)C2)c1)Nc1ccncc1Cl (stereo not shown) [compound 222]	–	> 10
CN(C(=O)Nc1ccccc1)c1cccc(C2CCCN(c3ncnc4[nH]ccc34)C2)c1 (stereo not shown) [compound 136, 1-(3-(1-(7H-Pyrrolo[2,3-d]pyrimidin-4-yl)piperidin-3-yl)phenyl)-1-methyl-3-phenylurea]	–	> 10
Cc1cc(NC(=O)Nc2cccc(C3CCCN(c4ncnc5[nH]ccc45)C3)c2)n(-c2ccccc2)n1 (stereo not shown) [compound 227]	–	> 10
Cc1cc(=O)nc(Nc2cccc(C3CCCN(c4ncnc5[nH]ccc45)C3)c2)[nH]1 (stereo not shown) [compound 122, 2-(3-(1-(7H-pyrrolo[2,3-d]pyrimidin-4-yl)piperidin-3-yl)phenylamino)-6-methylpyrimidin-4(1H)-one]	–	> 10
COc1c(N)ncnc1N1CCCC(c2cccc(NC(=O)Nc3ccccc3)c2)C1 (stereo not shown) [Cmpd 97, 1-(3-(1-(6-Amino-5-methoxypyrimidin-4-yl)piperidin-3-yl)phenyl)-3-phenylurea]	–	> 10
Nc1ncnc(N2CCC[C@@H](N3CCCC(NC4CCC(F)(F)CC4)C3=O)C2)c1F (stereo partly drawn) [compound 294, (3′R)-1′-(6-Amino-5-fluoropyrimidin-4-yl)-3-(4,4-difluorocyclohexylamino)-1,3′-bipiperidin-2-one]	–	> 10
Cc1nn(C)c(C)c1NC(=O)Nc1cccc(C2CCCN(c3ncnc4[nH]ccc34)C2)c1 (stereo not shown) [compound 244]	–	> 10
O=C(NC[C@H]1CCCC[C@H]1O)Nc1cccc(C2CCCN(c3ncnc4[nH]ccc34)C2)c1 (stereo partly shown) [compound 218]	1 to 10	–
O=C(Nc1cccc(C2CCCN(c3ncnc4[nH]ccc34)C2)c1)N[C@H](CO)C1CCCCC1 (stereo partly shown) [compound 203]	1 to 10	–
O=c1c(Nc2cccc(Cl)c2)c(Nc2cccc(C3CCCN(c4ncnc5[nH]ccc45)C3)c2)c1=O (stereo not shown) [Cmpd 71, 3-(3-(1-(7H-pyrrolo[2,3-d]pyrimidin-4-yl)piperidin-3-yl)phenylamino)-4-(3-chlorophenylamino)cyclobut-3-ene-1,2-dione]	–	> 10
COc1ccc(C(=O)Nc2cccc(C3CCCN(c4ncnc5[nH]ccc45)C3)c2)cc1 (stereo not shown) [Cmpd 8, N-(3-(1-(7H-pyrrolo[2,3-d]pyrimidin-4-yl)piperidin-3-yl)phenyl)-4-methoxybenzamide]	–	> 10
Nc1ncnc(N2CCC[C@@H](N3CC[C@@H](Nc4cc(Cl)cc(Cl)c4)C3=O)C2)c1Cl [compound 354]	0.1 to 0.999	–
CC(C)(C)NC1CCCN([C@@H]2CCCN(c3ncnc(N)c3F)C2)C1=O (stereo partly drawn) [compound 290, (3′R)-1′-(6-Amino-5-fluoropyrimidin-4-yl)-3-(tert-butylamino)-1,3′-bipiperidin-2-one]	–	> 10
Nc1ncnc(N2CC[C@H](O)[C@@H](N3CCCC(Nc4cc(F)cc(Cl)c4)C3=O)C2)c1F (stereo partly drawn) [compound 324, trans-1′-(6-Amino-5-fluoropyrimidin-4-yl)-3-(3-chloro-5-fluorophenylamino)-4′-hydroxy-1,3′-bipiperidin-2-one]	–	< 0.1
